Source: patent US10183039B2, “Methods for the production of collagen IV” (Vanderbilt University, priority 2013, dated 2019)
Where two headings read alike, the source gives them in different places.

Key:
[1] = target: T1, myeloperoxidase (Homo sapiens, UniProt P05164); conditions: cited from earlier work
T1 sequence (P05164 49-745): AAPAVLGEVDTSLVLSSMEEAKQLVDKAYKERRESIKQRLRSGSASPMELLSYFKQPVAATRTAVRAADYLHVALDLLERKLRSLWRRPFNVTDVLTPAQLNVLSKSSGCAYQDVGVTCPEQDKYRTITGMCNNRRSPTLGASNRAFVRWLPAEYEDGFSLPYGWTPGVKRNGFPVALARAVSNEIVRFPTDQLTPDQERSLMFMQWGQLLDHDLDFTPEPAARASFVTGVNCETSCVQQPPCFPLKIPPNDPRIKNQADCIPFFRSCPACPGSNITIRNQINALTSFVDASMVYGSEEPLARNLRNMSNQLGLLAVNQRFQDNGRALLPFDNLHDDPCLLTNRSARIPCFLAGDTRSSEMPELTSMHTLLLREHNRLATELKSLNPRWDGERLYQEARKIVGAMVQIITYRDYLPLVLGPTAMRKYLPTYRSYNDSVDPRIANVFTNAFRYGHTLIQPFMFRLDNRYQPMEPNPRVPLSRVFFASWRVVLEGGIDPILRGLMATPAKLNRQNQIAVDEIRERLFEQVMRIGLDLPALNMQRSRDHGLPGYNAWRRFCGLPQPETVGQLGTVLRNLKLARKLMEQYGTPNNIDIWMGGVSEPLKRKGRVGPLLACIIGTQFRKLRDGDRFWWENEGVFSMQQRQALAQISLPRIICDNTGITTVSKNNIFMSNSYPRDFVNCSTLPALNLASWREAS

[2] = target: T2, thyroid peroxidase (Homo sapiens, UniProt P07202); conditions: cited from earlier work
T2 sequence (P07202 19-933): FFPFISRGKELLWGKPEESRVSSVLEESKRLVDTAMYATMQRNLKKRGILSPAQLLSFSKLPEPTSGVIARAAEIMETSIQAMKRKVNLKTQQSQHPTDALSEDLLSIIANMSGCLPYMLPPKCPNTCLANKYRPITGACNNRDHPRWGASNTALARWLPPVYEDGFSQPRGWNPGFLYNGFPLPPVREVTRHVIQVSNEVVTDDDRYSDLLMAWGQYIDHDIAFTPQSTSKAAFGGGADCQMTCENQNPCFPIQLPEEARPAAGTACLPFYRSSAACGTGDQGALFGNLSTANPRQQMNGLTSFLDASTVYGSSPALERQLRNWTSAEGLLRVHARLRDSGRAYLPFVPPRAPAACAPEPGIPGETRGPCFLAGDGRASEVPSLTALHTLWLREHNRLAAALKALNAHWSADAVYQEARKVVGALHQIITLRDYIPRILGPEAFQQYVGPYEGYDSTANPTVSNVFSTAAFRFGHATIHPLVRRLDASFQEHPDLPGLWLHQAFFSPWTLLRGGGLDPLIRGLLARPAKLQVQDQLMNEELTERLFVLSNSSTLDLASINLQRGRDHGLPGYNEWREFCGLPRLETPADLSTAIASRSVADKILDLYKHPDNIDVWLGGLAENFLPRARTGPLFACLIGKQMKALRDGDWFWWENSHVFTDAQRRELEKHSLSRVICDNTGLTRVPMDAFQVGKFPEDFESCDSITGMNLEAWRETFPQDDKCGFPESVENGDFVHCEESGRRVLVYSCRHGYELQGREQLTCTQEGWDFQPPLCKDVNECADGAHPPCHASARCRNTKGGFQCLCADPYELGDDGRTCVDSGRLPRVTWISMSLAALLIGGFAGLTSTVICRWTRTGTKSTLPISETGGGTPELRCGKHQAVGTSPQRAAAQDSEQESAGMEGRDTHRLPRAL

[3] = tested on: PFHR-9 cells; assay: Collagen IV sulfilimine crosslink formation in PFHR-9 cell culture (NC1 hexamer, SDS-PAGE); assay type: cell-based, mouse; conditions: inhibitor present during cellular deposition of basement membrane; FIG. 2A: PHG 50 μM, MMI 1 mM, KI 10 mM, 3-AT 10 mM, BAPN 500 μM, putrescine 2.5 mM
[4] = target: horseradish peroxidase (HRP) (Armoracia rusticana, UniProt P00433); conditions: with H2O2; cited from earlier work
Chain of horseradish peroxidase (HRP) (P00433 31-338 limits assumed): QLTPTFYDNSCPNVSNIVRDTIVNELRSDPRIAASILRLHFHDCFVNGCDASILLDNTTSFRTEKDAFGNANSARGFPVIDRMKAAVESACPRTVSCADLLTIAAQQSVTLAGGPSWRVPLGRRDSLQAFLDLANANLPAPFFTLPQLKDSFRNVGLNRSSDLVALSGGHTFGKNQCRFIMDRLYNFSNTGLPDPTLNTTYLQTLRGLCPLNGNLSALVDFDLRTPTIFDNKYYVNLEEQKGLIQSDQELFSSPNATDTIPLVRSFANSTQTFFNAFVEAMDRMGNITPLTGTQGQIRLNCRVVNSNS

[5] = tested on: Drosophila eggs; conditions: PHG in the food, excess dietary (100 μM) Br^−
Protocol: All eggs deposited in a quadrant of a 55 mm laying cage were moved to a fresh phytagel surface and oriented with dorsal appendages facing the surface for quantitation of the aspect ratio which is calculated by dividing the anterior-posterior axis length by the egg's diameter. Eggs were collected after 168 hours of exposure to standard or experimental diets.
(FIG. 18B) Br^− concentration effect on egg aspect ratio, in single age-matched cohort of w^1118 flies, over time. Vertical axis represents mean aspect ratio (±S.E.M). […] Inset plotted as mean±95% C.I. and significance calculated with the Kruskall-Wallis test. […] PHG was administered in the food. All wild-type (w^1118) mothers were from the same cohort and reared identically, then divided into sub-cohorts for exposure to the indicated experimental diet.

[6] = tested on: PFHR-9 basement membrane collagen IV; assay: HEK293 cell overlay on uncrosslinked PFHR-9 collagen IV networks; assay type: cell-based, mouse; conditions: HEK293 cells plated on uncrosslinked PFHR-9 basement membrane; PHG 50 μM where present
Protocol: FIGS. 5A-D—Peroxidasin uniquely crosslinks native collagen IV networks. (FIG. 5A) Experimental design of ‘overlay’ experiments. PFHR-9 cells were grown in the presence of phloroglucinol (PHG; 50 μM) to deposit uncrosslinked collagen IV (Col IV) networks. The cells were then removed, and the basement membrane was extracted with 4 M guanidine (Gdn) to inactivate endogenous peroxidasin. Cells stably transfected with human peroxidasin (PXDN) or untransfected HEK293 cells (WT HEK) were plated on top of the PFHR9 basement membrane, which was subsequently analyzed for collagen IV crosslink content. (FIG. 5B) Collagen IV-sulfilimine bond formation in the indicated experimental conditions as shown by stained SDS-PAGE gel. Two (WT HEK cells) or three (PXDN, with or without PHG) out of five independent experiments are shown. MW, molecular weight. (FIG. 5C) Coomassie blue-stained gel of collagen IVNC1 hexamers isolated from uncrosslinked PFHR-9 basement membrane overlaid with HEK293T cells transiently transfected with human peroxidasin cDNA, mouse myeloperoxidase cDNA (MPO), mouse lactoperoxidase cDNA (LPO) or empty vector (Mock). […]
PFHR-9 cells were grown in the presence of 50 μM phloroglucinol to produce noncrosslinked collagen IV. […] Plates were incubated for 24-48 h, and collagen IV was analyzed for NC1 crosslink formation. […]

[7] = target: peroxidase (Drosophila melanogaster, UniProt Q9VZZ4); conditions: Nelson et al., 1994; read-out: half-maximum inhibitory concentration (IC50); cited from earlier work
Chain of peroxidase (Q9VZZ4 24-1527): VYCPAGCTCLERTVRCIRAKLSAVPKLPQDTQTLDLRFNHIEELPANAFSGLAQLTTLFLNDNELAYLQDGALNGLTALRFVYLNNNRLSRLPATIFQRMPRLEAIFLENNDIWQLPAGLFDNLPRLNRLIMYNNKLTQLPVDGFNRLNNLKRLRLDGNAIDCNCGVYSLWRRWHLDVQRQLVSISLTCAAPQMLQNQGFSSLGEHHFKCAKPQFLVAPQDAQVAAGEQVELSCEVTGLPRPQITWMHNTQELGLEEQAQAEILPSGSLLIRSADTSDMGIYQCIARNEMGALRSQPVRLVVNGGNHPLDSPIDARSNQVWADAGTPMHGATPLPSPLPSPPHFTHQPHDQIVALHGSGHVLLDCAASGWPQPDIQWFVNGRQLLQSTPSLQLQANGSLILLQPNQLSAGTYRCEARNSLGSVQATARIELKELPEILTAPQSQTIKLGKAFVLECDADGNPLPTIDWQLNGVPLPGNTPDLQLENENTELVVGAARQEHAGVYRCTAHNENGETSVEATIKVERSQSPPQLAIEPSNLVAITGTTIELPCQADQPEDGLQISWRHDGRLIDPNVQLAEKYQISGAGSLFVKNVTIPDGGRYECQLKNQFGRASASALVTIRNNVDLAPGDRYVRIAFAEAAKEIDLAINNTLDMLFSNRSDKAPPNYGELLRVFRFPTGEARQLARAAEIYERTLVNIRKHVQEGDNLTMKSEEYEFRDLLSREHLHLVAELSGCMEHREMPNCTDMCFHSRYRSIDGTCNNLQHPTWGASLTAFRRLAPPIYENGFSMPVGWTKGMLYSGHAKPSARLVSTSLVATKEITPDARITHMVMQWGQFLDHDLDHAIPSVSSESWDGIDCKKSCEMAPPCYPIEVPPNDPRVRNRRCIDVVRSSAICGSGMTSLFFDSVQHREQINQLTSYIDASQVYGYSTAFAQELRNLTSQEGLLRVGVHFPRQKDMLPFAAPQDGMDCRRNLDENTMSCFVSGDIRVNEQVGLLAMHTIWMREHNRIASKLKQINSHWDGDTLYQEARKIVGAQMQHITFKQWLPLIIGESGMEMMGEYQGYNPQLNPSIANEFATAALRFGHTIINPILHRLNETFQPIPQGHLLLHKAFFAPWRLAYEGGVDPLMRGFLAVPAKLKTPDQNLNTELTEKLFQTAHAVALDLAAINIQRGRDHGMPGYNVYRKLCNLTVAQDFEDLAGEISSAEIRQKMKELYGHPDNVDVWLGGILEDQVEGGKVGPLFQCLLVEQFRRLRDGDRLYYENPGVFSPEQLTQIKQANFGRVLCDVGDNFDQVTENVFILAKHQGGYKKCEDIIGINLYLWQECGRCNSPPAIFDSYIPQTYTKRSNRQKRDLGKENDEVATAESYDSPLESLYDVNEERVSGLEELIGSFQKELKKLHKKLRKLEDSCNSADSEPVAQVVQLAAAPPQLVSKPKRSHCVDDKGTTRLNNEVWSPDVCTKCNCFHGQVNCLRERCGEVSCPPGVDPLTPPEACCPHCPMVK

[8] = tested on: transglutaminase; conditions: Candi et al., 1995; cited from earlier work
[9] = target: T3, Lysyl oxidase (Bos taurus, UniProt P33072); conditions: Tang et al., 1983; cited from earlier work
T3 sequence (P33072 170-418): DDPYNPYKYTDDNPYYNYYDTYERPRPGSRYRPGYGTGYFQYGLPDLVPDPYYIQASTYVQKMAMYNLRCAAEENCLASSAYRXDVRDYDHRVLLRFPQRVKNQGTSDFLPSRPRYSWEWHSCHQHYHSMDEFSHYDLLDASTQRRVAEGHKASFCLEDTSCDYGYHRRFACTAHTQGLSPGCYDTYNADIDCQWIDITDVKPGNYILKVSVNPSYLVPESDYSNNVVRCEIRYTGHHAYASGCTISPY

[10] = tested on: collagen IV NC1 hexamer; assay: Purified peroxidases reacted with uncrosslinked NC1 hexamer and H2O2; assay type: biochemical, mouse; conditions: 16 nM enzyme, 500 nM NC1 hexamer, 10 μM H2O2, 1×PBS
Protocol: (§1) (FIG. 3A) SDS-PAGE of reactions consisting of 16 nM purified human peroxidasin (PXDN), 500 nM monomeric NC1 hexamer (3 μM potential crosslinks) and 10 μM H2O2 in 1×PBS. Control reactions without H2O2 or in the presence of the peroxidase inhibitor phloroglucinol (PHG; 50 μM) were also conducted. D represents crosslinked dimeric NC1 subunits, and M denotes uncrosslinked monomeric subunits. MW, molecular weight. (FIG. 3B) Coomassie blue-stained gel after SDS-PAGE of collagen IVNC1 hexamer is shown to illustrate relative amounts of sulfilimine-crosslinked dimeric (D) and uncrosslinked monomeric (M) subunits after incubation of uncrosslinked PFHR-9 basement membranes in varying buffer halide concentrations (Br— or Cl— as K+ salt) with or without 1 mM H2O2. (FIG. 3C) PXDN-mediated hypohalous acid (HOX) production expressed as nmol hypohalous acid generated per nmol enzyme per min, measured in 1×PBS plus 100 μM NaBr. Values represent mean±s.e.m. (n=3). (FIG. 3D) HOCl production measured directly in 1×PBS without added Br—. Values denote mean±s.e.m. (n=4). […] (FIG. 3E) HOX production, measured in nmol HOX generated per nmol enzyme per min for myeloperoxidase (MPO), eosinophil peroxidase (EPO) or LPO in 1×PBS plus 100 μM NaBr. Values represent mean±s.e.m. (n=3).
PHG, phloroglucinol; MW, molecular weight.
If peroxidasin uses hypohalous acids as intermediates to form sulfilimine bonds, these intermediates should recapitulate the reaction when directly added to purified, uncrosslinked collagen IV NC1 hexamer. […] Alternatively, other peroxidasesis provided to form reactive hypohalous acids.

[11] = Hypohalous acid production by peroxidases (taurine haloamine trapping); assay type: biochemical; conditions: for hypohalous acid formation: 1×PBS plus 100 μM NaBr or without added Br—; for HOCl production: 1×PBS without added Br— (FIG. 3D)
Protocol: as §1
Hypohalous acids were trapped as stable taurine haloamines, which oxidize tetramethylbenzidine to yield a colorimetric measure of hypohalous acid concentration and production (Dypbukt et al., 2005).
Animal heme peroxidases, such as peroxidasin, myeloperoxidase, eosinophil peroxidase and lactoperoxidase, catalyze oxidative reactions using distinct halogenation and peroxidase cycles (Obinger, 2006). Both begin with hydrogen peroxide oxidation of the prosthetic heme iron to form an intermediate denoted compound I (Obinger, 2006). Compound I may oxidize halides into their respective hypohalous acids (or related oxidants in equilibrium), which may directly or indirectly halogenate susceptible moieties. Alternatively, compound I undergoes sequential reduction to form single electron-free radicals of energetically favorable substrates in the peroxidase cycle. Both pathways eventually regenerate reduced, native enzyme (Obinger, 2006). To determine whether peroxidasin forms sulfilimine bonds using a halogenation cycle, the inventors first tested whether peroxidasin crosslinks collagen IV in the absence of halides.

In the case of `Nc1nc[nH]n1` [3-aminotriazole], the inhibition of myeloperoxidase ([1]; 10 mM) is listed as “near-complete inhibition”, the “inhibition of thyroid peroxidase” value ([2]; 2 mM) is listed as “near-complete inhibition” and the “formation of collagen IV crosslinks” value [3] is listed as “prevented formation of collagen IV crosslinks”.
In the case of `[N-]=[N+]=[N-]` [azide], the Ki [4] is listed as 1470 µM and the kinact [4] is listed as 0.69 min⁻¹.
In the case of `Cn1cc[nH]c1=S` [methimazole], the inhibition of myeloperoxidase ([1]; 3 mM) is given as 70%, the IC50 [2] is given as 0.8 µM and the “formation of collagen IV crosslinks” value [3] is given as “prevented formation of collagen IV crosslinks”.
For `Oc1cc(O)cc(O)c1` [phloroglucinol, reference compound], the “egg aspect ratio under peroxidasin inhibition” value [5] was “dose-dependent suppression in egg aspect ratio”, the “egg aspect ratio under peroxidasin inhibition” value ([5]; listed as PHG) was “dose-dependent reduction in the exaggerated egg elongation” and the “crosslinking of native collagen IV network by overlaid cells” value [6] was “failed to crosslink collagen IV”. For the same molecule, the “formation of collagen IV crosslinks” value [3] was “prevented formation of collagen IV crosslinks” and the IC50 [7] was 0.5 µM.
For `NCCCCN` [putrescine], the “formation of collagen IV crosslinks” value [3] is given as “had no effect” and the Km [8] is given as 26 to 847 µM.
In the case of `N#CCCN` [β-aminopropionitrile], the “formation of collagen IV crosslinks” value [3] is listed as “had no effect” and the IC50 [9] is listed as 3 to 8 µM.
For “eosinophil peroxidase: animal heme peroxidase used as comparator”, the “formation of sulfilimine crosslinks in NC1 hexamer” value (“formation of sulfilimine crosslinks” for short) [10] was “formed sulfilimine crosslinks in collagen IV” and the hypohalous acid formation [11] was “primarily yielded hypobromous acid”.
In the case of “lactoperoxidase: animal heme peroxidase used as comparator”, the “formation of sulfilimine crosslinks” value [10] is reported as “poorly catalyzed crosslink formation”, the hypohalous acid formation [11] is reported as “formed neither hypohalous acid” and the HOCl production [11] is reported as “not statistically different from zero”.
For “peroxidasin: heterologously expressed and purified human peroxidasin, a basement membrane heme peroxidase”, the “formation of sulfilimine crosslinks” value [10] was “robust formation of crosslinked dimeric subunits”, the “crosslinking of native collagen IV network by overlaid cells” value [6] was “Only peroxidasin formed sulfilimine bonds in collagen IV” and the hypohalous acid formation [11] was “formed hypobromous and hypochlorous acid at modest rates with a preference for bromide”. The HOCl production [11] was “significantly greater than that mediated by lactoperoxidase”.
